In patent publication US7763617B2, “Pyrazolopyridine-4-yl pyridazinone derivatives and addition salts thereof, and PDE inhibitors comprising the same derivatives or salts as active ingredient” (Kyorin Pharmaceutical Co., Ltd., priority 2005, dated 2010) one finds IC50, inhibition in vivo and melting point data, which are given here for 9 compounds.

The target of data set [1] is T1, PDE3A catalytic domain (PDE3Acat) (Homo sapiens, UniProt Q14432).
T1 construct: cDNA fragments of PDE3A catalytic domain (indicated as “cat,” hereinafter); made in house; host or cells: Sf9 insect cells (baculovirus, Bac-to-Bac)
T1 sequence (Q14432 674-1093 limits assumed): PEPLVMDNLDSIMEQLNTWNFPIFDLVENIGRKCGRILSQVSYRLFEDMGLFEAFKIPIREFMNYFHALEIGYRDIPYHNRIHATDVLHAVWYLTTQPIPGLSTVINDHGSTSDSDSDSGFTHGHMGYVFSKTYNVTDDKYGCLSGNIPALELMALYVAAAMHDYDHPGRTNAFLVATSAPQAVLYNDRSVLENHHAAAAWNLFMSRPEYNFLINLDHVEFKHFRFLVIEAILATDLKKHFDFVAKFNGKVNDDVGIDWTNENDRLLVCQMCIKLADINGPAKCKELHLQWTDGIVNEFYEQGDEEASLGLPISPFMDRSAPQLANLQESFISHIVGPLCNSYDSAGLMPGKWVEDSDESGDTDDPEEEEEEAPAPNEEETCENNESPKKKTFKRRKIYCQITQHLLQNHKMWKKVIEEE
Put plainly: Inhibition of phosphodiesterase activity, [3H]-cAMP hydrolysis, recombinant PDE3Acat. Format: biochemical. Particulars: cAMP 2 μmol/L. The protocol: (§1) RT-PCR was performed to isolate cDNA fragments of PDE3A catalytic domain (indicated as “cat,” hereinafter), PDE4Bcat, PDE5Acat and PDE10A1 from human RNA. Using Gateway system (Invitrogen) and Bac-to-Bac (registered trademark) Baculovirus Expression system (Invitrogen), the isolated cDNA fragments were transfected into Sf9 insect cells for expression of the PDE proteins. The recombinant PDE3Acat, PDE4Bcat, PDE5Acat and PDE10A1 proteins were isolated from culture supernatant or cell extracts of Sf9 cells expressed high levels of these proteins by ion-exchange chromatography and used for the following experiments.
(§2) 4 mmol/L solution of each test compound was serially diluted 4-fold with 15% DMSO solution to prepare the solutions with concentrations of 15 nmol/L to 4 mmol/L (final concentrations=1.5 nmol/L-400 μmol/L). 10 μL of each test compound solution was added to each well of 96 plate with 10 μL of [^3H]-cAMP or [^3H]-cGMP solution, diluted with a buffer (40 mmol/L Tris-HCl (pH 7.4), 10 mmol/L MgCl2) to the concentration shown in Table 20 and 40 μL of each of the human recombinant PDE proteins in units shown in Table 20. The plate was incubated at 30° C. for 20 min, and then at 65° C. for 2 min. Subsequently, 25 μL of 1 mg/mL 5′-nucleotidase (Crotalus atrox venom, Sigma) was added to each well and the plate was incubated at 30° C. for 10 min. 200 μL of Dowex solution (300 mg/mL Dowex 1×8-400 (Sigma Aldrich), 33% ethanol) was then added to each well and the plate was shaken at 4° C. for 20 min. Subsequently, 200 μL of MicroScint 20 (Packard) was added to each well and the radioactivity of each sample was measured by a scintillation counter (Topcount, Packard) IC50 was calculated by GraphPad Prism v3.03 (GraphPad Software).

The subject of data set [2] is isolated guinea pig tracheal smooth muscles. Nature of the data set: Relaxant effect on histamine-induced contraction of isolated guinea pig tracheal smooth muscles. The conditions noted are these: Cavia porcellus; histamine 10^-5 mol/L contraction, relaxation as % of maximum response to papaverine 10^-4 mol/L; read-out: IC50(μmol/L), concentration required to 50% relaxation. The method, then:
Guinea pigs were exsanguinated and the trachea was immediately isolated and cut into 2 to 3 cartilage ring segments to prepare tracheal ring preparations. The tracheal rings were suspended in 10 mL of Tyrode's solution bubbled with a gaseous mixture of 95% O2+5% CO2 at 37° C. The composition of the Tyrode's solution (mM) was as follows: NaCl 136.9, KCl 2.7, CaCl2 1.8, MgCl2 1.0, NaH2PO4 0.4, NaHCO3 11.9 and Gucose 5.6. The contractile response was measured by an isometric transducer (UM-203, KISHIMOTO) and recorded on a recorder ([…] SERVOCORDER SR6221). After about 1 hour incubation with 1.5 g of resting tention, histamine (10^−5 mol/L) was added to induce the contractile response. After confirming the response, the preparations were washed with Tyrode's solution (10 mL×3). Then indomethacin (10^−5 mol/L) was applied and the preparations were equilibrated for at least 30 min under 1.5 g tension. Subsequently, histamine (10^−5 mol/L) was applied. After the contraction reached a steady state, each compound was added in a cumulative manner (10^−8 mol/L-3×10^−5 mol/L). Each compound was prepared as a 10^−1 mol/L solution in DMSO, which was diluted with distilled water for use. After addition of test compounds, papaverine (10^−4 mol/L) was added to determine the maximum relaxation of the preparation. Relaxant response of test compounds were expressed as a percentage of the maximum response to papaverine. IC50 was defined as a concentration of the compound required to 50% relaxation. DMSO was used as a control.

The target of data set [3] is T2, PDE10A1 (Homo sapiens, UniProt Q9Y233).
T2 construct: made in house; host or cells: Sf9 insect cells (baculovirus, Bac-to-Bac)
T2 sequence (Q9Y233 1-779 isoform Q9Y233-1): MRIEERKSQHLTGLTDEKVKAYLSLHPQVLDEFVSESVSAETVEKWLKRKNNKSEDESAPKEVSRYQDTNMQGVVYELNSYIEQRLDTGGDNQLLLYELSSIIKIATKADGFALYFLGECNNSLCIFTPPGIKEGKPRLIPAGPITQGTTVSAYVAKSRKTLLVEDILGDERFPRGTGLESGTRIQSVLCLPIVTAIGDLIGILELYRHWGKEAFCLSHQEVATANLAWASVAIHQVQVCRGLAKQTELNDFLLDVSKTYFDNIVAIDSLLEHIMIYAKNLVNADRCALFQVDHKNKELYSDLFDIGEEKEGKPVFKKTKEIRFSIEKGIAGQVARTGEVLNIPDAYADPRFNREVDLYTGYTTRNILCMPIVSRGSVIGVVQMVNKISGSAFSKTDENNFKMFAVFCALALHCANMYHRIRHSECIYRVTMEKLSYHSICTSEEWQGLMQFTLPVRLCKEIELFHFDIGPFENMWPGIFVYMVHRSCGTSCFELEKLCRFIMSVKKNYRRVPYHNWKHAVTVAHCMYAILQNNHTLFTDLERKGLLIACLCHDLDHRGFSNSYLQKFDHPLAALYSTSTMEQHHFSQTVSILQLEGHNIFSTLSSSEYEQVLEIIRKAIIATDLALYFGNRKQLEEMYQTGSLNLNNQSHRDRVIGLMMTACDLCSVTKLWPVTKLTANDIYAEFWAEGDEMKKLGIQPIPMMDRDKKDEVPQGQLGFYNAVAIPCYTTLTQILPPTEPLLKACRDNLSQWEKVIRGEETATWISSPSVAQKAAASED
Put plainly: Inhibition of phosphodiesterase activity, [3H]-cAMP hydrolysis, recombinant PDE10A1. Type of data set: biochemical. The conditions noted are these: human recombinant PDE10A1, cAMP 0.2 μmol/L; read-out: IC50(μmol/L) PDE10. The protocol:
as §1, §2

The target in data set [4] is PDE5Acat (Homo sapiens, UniProt O76074). Put plainly: Inhibition of phosphodiesterase activity, [3H]-cGMP hydrolysis, recombinant PDE5Acat. Particulars: cGMP 2 μmol/L, read-out: IC50(μmol/L) PDE5. Format: biochemical. The method, then: as §1, §2
For data set [5], the system named is histamine-induced bronchoconstriction. Nature of the data set: Histamine-induced bronchoconstriction in guinea pigs. Format: in vivo, guinea pig. The conditions noted are these: Cavia porcellus, iv, 0.5 min, 30 seconds after administration, histamine 12.5 μg/kg i.v.; for inhibition in vivo at 1 mg/kg: test compound 1 mg/kg i.v.; for inhibition in vivo at 0.1 mg/kg: values in brackets: test compound 0.1 mg/kg, i.v. The protocol:
Guinea pigs were anesthetized with pentobarbital (30 mg/kg, i.p.). A cannula for IV administeration, a cannula for collecting blood and measurement of blood pressure and a trachea cannula were inserted into the left exterior jugular vein, right interior carotid artery and trachea, respectively. The animals were placed under artificial respiration at 60 times/min and 10 mL/kg/stroke. The airflow through the branch of the tracheal cannula was measured by a bronchospasm transducer (Ugo-Basile) and recorded on a computer via Power Lab (ADInstruments Japan). The animals were immobilized with gallamine (10 mg/kg, i.v.), then administered histamine at 10-minute intervals (12.5 μg/kg, i.v.). […] To examine the inhibitory activity of test compound, the histamine-induced bronchoconstriction was measured after 30 seconds of drug administration. The bronchoconstriction was recorded as the change of the airflow: The results were shown by percentages of the maximum histamine-induced bronchoconstriction. Each test compound was prepared as a 10 mg/mL solution in DMSO. Gallamine was prepared as a 10 mg/mL solution in physiological saline. Histamine was prepared as a 1 mg/mL solution in physiological saline, which was diluted with physiological saline to 62.5 μg/mL for use.

Data set [6] concerns the target T3, PDE4Bcat (Homo sapiens, UniProt Q07343).
T3 construct: catalytic domain (indicated as “cat,” hereinafter), PDE4Bcat; made in house; host or cells: Sf9 insect cells (baculovirus, Bac-to-Bac)
Nature of the data set: Inhibition of phosphodiesterase activity, [3H]-cAMP hydrolysis, recombinant PDE4Bcat. Format: biochemical. The conditions noted are these: cAMP 2 μmol/L, read-out: IC50(μmol/L) PDE4. The protocol:
as §1, §2

[7] abbreviates: human recombinant PDE3Acat, read-out: IC50(μmol/L) PDE3.
Setting [8] is: IC50(μmol/L) PDE3, human recombinant PDE3Acat.

Structures are written as SMILES. Read-outs that look alike come from different tables or passages of the source.

T3 sequence (Q07343 330-659 limits assumed): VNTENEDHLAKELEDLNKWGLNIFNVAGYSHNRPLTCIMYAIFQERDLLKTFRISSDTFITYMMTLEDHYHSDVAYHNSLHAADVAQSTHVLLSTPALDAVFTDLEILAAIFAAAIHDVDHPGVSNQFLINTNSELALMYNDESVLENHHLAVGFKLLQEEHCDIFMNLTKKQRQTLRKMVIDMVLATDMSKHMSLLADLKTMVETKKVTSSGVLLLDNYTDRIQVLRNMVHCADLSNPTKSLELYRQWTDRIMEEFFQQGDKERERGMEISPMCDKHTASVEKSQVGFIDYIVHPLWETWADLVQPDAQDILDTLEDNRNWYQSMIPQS

For orientation: inhibition in vivo means the percentage by which the read-out fell short of the control. A high value points to a response far below the control. Consider `CCc1cc2c(C3=NNC(=O)CC3C)cc(Cl)cn2n1` (single isomer, unassigned; (+)) [Example 313, (+)-6-(6-chloro-2-ethyl-pyrazolo[1,5-a]pyridine-4-yl)-5-methyl-4,5-dihydro-3-(2H)-pyridazinone], for which the IC50 was 1 to 10 µmol/L in data set [1] (setting [7]); 0.5 µmol/L in data set [2]; 0.1 to 1 µmol/L in data set [3]; more than 10 µmol/L in data set [4]; 1 to 10 µmol/L in data set [6]. For the same compound, the inhibition in vivo at 1 mg/kg in data set [5] was not below 90%.
Turning to `COc1ccc(C2=NNC(=O)CC2C)c2cc(C(F)(F)F)nn12` (single isomer, unassigned; (+)) [Example 317, (+)-6-(7-methoxy-2-trifluoromethyl-pyrazolo[1,5-a]pyridine-4-yl)-5-methyl-4,5-dihydro-3-(2H)-pyridazinone], the IC50 was 0.1 to 1 µmol/L in data set [1] (setting [7]); 0.127 µmol/L in data set [2]; 1 to 10 µmol/L in data set [3]; more than 10 µmol/L in data set [4]; less than 1 µmol/L in data set [6]. For the same compound, in data set [5], the inhibition in vivo at 0.1 mg/kg is not below 90%.
Consider `CCc1cc2c(C3=NNC(=O)CC3C)ccc(OC)n2n1` (single isomer, unassigned; (-)) [Example 316, (−)-6-(2-ethyl-7-methoxy-pyrazolo[1,5-a]pyridine-4-yl)-5-methyl-4,5-dihydro-3-(2H)-pyridazinone], for which the IC50 in data set [1] (setting [8]) is more than 10 µmol/L; in data set [2] it was 0.676 µmol/L; in data set [3] it was more than 10 µmol/L; in data set [4], more than 10 µmol/L; in data set [6] it was less than 1 µmol/L.
Take `COc1ccc(C2=NNC(=O)CC2C)c2cc(C(F)(F)F)nn12` (stereo not drawn) [205(211), 6-(7-methoxy-2-trifluoromethyl-pyrazolo[1,5-a]pyridine-4-yl)-4,5-dihydro-5-methyl-3-(2H)-pyridazinone]: the IC50 was 1 to 10 µmol/L in data set [1] (setting [7]); 0.3 µmol/L in data set [2]; 1 to 10 µmol/L in data set [3]; more than 10 µmol/L in data set [4]; less than 1 µmol/L in data set [6]. Also, the inhibition in vivo at 0.1 mg/kg in data set [5] is not below 90%.
The term melting point denotes the temperature of the solid-liquid transition. On to `CCc1cc2c(C3=NNC(=O)CC3C)cccn2n1` (stereo not drawn) [Example 201], for which the melting point was in the range of 231 to 233 °C. The IC50 in data set [1] (setting [7]) is 1 to 10 µmol/L. Besides, the IC50 in data set [2] came out at 0.93 µmol/L. For the same compound, the IC50 in data set [3] was 1 to 10 µmol/L. Moreover, the IC50 in data set [4] is more than 10 µmol/L. In addition, in data set [5], the inhibition in vivo at 1 mg/kg was not below 90%. Further, the IC50 in data set [6] is more than 10 µmol/L.
On to `CCc1cc2c(C3=NNC(=O)CC3C)ccc(OC)n2n1` (stereo not drawn) [Example 216], for which the IC50 was more than 10 µmol/L in data set [1] (setting [8]); 0.65 µmol/L in data set [2]; 1 to 10 µmol/L in data set [3]; more than 10 µmol/L in data set [4]; 0.1 to 1 µmol/L in data set [6]. This compound gave an inhibition in vivo at 1 mg/kg in data set [5] not below 90%.
On to `CCc1cc2c(-c3ccc(=O)[nH]n3)cccn2n1` [Example 304], for which the IC50 in data set [1] (setting [7]) is 1 to 10 µmol/L; in data set [2], 0.89 µmol/L; in data set [3] it was more than 10 µmol/L; in data set [4] it was more than 10 µmol/L; in data set [6], more than 10 µmol/L. The inhibition in vivo at 1 mg/kg in data set [5] was not below 90%.
The compound `CCc1cc2c(-c3n[nH]c(=O)cc3C)cccn2n1` [Example 305] gave a melting point of 229 to 231 °C.
Compound `CCc1cc2c(C3=NNC(=O)CC3C)cc(Cl)cn2n1` (stereo not drawn) [Example 311, 6-(6-chloro-2-ethyl-pyrazolo[1,5-a]pyridine-4-yl)-5-methyl-4,5-dihydro-3-(2H)-pyridazinone] gave a melting point of 172 to 174 °C. For the same compound, the IC50 in data set [2] is 2 µmol/L.
